Measured values from publication PMC12040169 (PLOS Biology, 2025).

Test: in vitro
Conditions: human, hela cells, % viability

Row | SMILES | viability at 28.5 h, 10 µM [%]
1 | O=C(NCc1ccc2c(c1)OCO2)c1ccc(Oc2ccccc2)cc1 [CBK293982] | 91.4
2 | Cc1n[n+]2c(C(=O)Nc3ccc(S(=O)(=O)Nc4nccs4)cc3)c(C)[n-]n2c1[N+](=O)[O-] [CBK293983] | 83.2
3 | CC(Oc1cccc(Cl)c1)c1nc(-c2cccs2)no1 (centres unmarked) [CBK293984] | 90.8
4 | CC(Oc1cccc(Br)c1)c1nc(-c2ccc(-n3cccc3)cc2)no1 (centres unmarked) [CBK293986] | 102
5 | O=C(CCCn1cc([N+](=O)[O-])cn1)Nc1cc(C(F)(F)F)ccc1Cl [CBK293987] | 108
6 | O=C(CSc1nnc(-c2ccco2)[nH]1)Nc1cccc(Cl)c1 [CBK293990] | 96.7
7 | N#Cc1c(NC(=O)CSc2nc(=O)cc(N)n2CCc2ccccc2)sc2c1CCCC2 [CBK293993] | 82.4
8 | CCOc1ccccc1NC(=O)c1cc2cccnc2n(Cc2ccc(Cl)cc2)c1=O [CBK294395] | 109
9 | CC(=O)N1N=C(COc2ccc(C)cc2)OC1c1ccc(Br)cc1 (centres unmarked) [CBK294396] | 103
10 | CC(=O)N1N=C(COc2ccc3c(c2)OCO3)OC1c1ccc(C)cc1 (centres unmarked) [CBK294397] | 83
11 | O=c1cc(CSc2nnc(-c3ccccc3)[nH]2)nc2[nH]cnn12 [CBK294398] | 96.1
12 | O=C(Nc1nnc(SCc2cc(=O)n3nc[nH]c3n2)s1)c1ccc(F)cc1 [CBK294399] | 90.2
13 | Cc1ccc(CNC(=O)c2nnc(C(=O)Nc3cccc(Cl)c3)s2)o1 [CBK294404] | 95.2
14 | O=C(NCCN1CCOCC1)c1nnc(C(=O)Nc2cccc(Cl)c2)s1 [CBK294405] | 93.9
15 | O=C(Nc1cccc(Cl)c1)c1nnc(C(=O)NC2CCCCC2)s1 [CBK294406] | 92.6
16 | CCCCNC(=O)c1nnc(C(=O)Nc2cccc(Cl)c2)s1 [CBK294407] | 87.1
17 | Cc1c(C(=O)Nc2cccc(C(F)(F)F)c2)sc2nc(-c3ccccc3)cn12 [CBK294408] | 87.9
18 | CC(C)Cc1cnc2c(c1SCc1ccc(F)cc1)c(=O)n(C)c(=O)n2C [CBK294409] | 95.6
19 | Cc1cc(=O)[nH]c(SCc2cc(=O)c3ccccc3[nH]2)n1 [CBK294410] | 86.3
20 | CN(C(=O)CSc1nc2ccccc2nc1Cc1ccc(Cl)cc1)C1CCCCC1 [CBK294411] | 104
21 | CCOc1ccc(CN(Cc2cc(=O)n3nc(-c4ccccc4)sc3n2)CC(C)C)cc1 [CBK294412] | 103
22 | COCCn1c(SCc2ccc([N+](=O)[O-])cc2)nc2c([nH]c3ccccc32)c1=O [CBK294415] | 90

Row | SMILES | viability at 28.5 h, 10 µM [%]
23 | COc1ccc(C2C(C(=O)Nc3ccc(C)cc3)=C(C)Nc3ncnn32)cc1OC (centres unmarked) [CBK294416] | 90.9
24 | Cn1c(NC(=O)c2ccccc2[N+](=O)[O-])cc(=O)n(C)c1=O [CBK294417] | 84
25 | O=C1CCc2cc(S(=O)(=O)NC(c3ccccc3)c3ccccc3)cc3c2N1CCC3 [CBK294418] | 95.6
26 | CC1C(=O)N2CCCc3cc(S(=O)(=O)NCc4ccc5c(c4)OCO5)cc1c32 (centres unmarked) [CBK294419] | 107
27 | COc1cccc2sc(N(Cc3cccnc3)C(=O)c3ccc(S(=O)(=O)N(C)C)cc3)nc12 [CBK294420] | 103
28 | O=C(CCS(=O)(=O)c1ccccc1)N(Cc1cccnc1)c1nc2c(F)cccc2s1 [CBK294422] | 81.5
29 | COc1ccc2sc(N(Cc3cccnc3)C(=O)CCc3ccccc3)nc2c1 [CBK294423] | 81.2
30 | CSc1ccccc1NC(=O)c1cccn(Cc2ccc(C)cc2)c1=O [CBK294426] | 87
31 | COc1ccc(-c2ccc(OCCNC(=O)c3cccc(F)c3)nn2)cc1 [CBK294428] | 87.1
32 | O=C(NCCOc1ccc(-c2ccc(F)cc2)nn1)c1ccc(Br)o1 [CBK294429] | 83.1
33 | COc1cccc(NC(=O)Cn2cc(OC)c(=O)cc2CN2CCOCC2)c1 [CBK294430] | 87.2
34 | CN1CC(=O)N(CC(=O)N2CC=C(c3ccccc3)CC2)c2ccccc2C1=O [CBK294433] | 88
35 | Cc1ccc(NC(=O)C2CC(=O)Nc3nc(SCc4ccccc4C)[nH]c(=O)c32)c(C)c1 (centres unmarked) [CBK294438] | 91
36 | CCCCOc1ccccc1C1CC(=O)Nc2c(-c3ccccc3F)csc21 (centres unmarked) [CBK294439] | 81
37 | CC(C)CCNC(=O)c1cccc(-n2c(=S)[nH]c3cc(Cl)ccc3c2=O)c1 [CBK294444] | 107
38 | O=C(CCCn1nnc2ccccc2c1=O)NCc1cccc(Cl)c1 [CBK294446] | 82.8
39 | Cc1ccc(-n2ncc3c(Nc4c(C)n(C)n(-c5ccccc5)c4=O)ncnc32)c(C)c1 [CBK294449] | 82.6
40 | O=C(c1ccc(S(=O)(=O)c2ccc(F)cc2)c([N+](=O)[O-])c1)N1CCCCCC1 [CBK294453] | 78.3
41 | O=C(CCNC(=O)c1ccc(Br)o1)NCc1ccccc1Cl [CBK294454] | 81.5
42 | O=C(O)c1[nH]c2ccccc2c1/C=N/Cc1ccccc1Cl [CBK294456] | 98.7
43 | COc1ccccc1CNC(=O)c1cc(-c2ccccc2)nc2ccccc12 [CBK294458] | 104
44 | CSc1cccc(NC(=S)N2CCC(N(C)C(C)C)CC2)c1 [CBK294463] | 86.8

Row | SMILES | viability at 28.5 h, 10 µM [%]
45 | O=C(NC1CCCC1)c1cc(=O)n(Cc2ccc(Cl)cc2)c2ccccc12 [CBK294464] | 104
46 | COc1ccc(-c2cc(C(=O)NC(C)c3ccccc3)c3cc(C(C)C)ccc3n2)cc1 (centres unmarked) [CBK294466] | 101
47 | Cc1ccc(CNC(=O)C2CCN(S(=O)(=O)N3CCOCC3)CC2)cc1 [CBK294467] | 103
48 | CCC1CCC2(CC1)NC(=O)N(Cc1cc(-c3ccccc3)on1)C2=O (centres unmarked) [CBK294977] | 90.1
49 | COc1ccc2cc(CNc3ccc(F)c([N+](=O)[O-])c3)c(Cl)nc2c1 [CBK295133] | 93.1
50 | CC(C)NC(=O)c1cccc2c1CCCN2Cc1nc2ccccc2o1 [CBK295135] | 101
51 | COc1ccc2c(CC(=O)Nc3sccc3C(N)=O)coc2c1 [CBK295137] | 101
52 | COc1ccc(O)c(C(=O)c2cnn(-c3ccccn3)c2)c1 [CBK295141] | 97.9
53 | O=c1[nH]nc(SCc2csc(COc3ccc(Cl)cc3)n2)n1C1CC1 [CBK295146] | 87.9
54 | COc1ccc(NS(=O)(=O)c2cc(C(=O)O)cc(C)c2C)cc1OC [CBK295148] | 82.9
55 | COc1ccc2c(CC(=O)Nc3cccc(-c4csc(C)n4)c3)coc2c1 [CBK295149] | 94
56 | Cn1cnnc1SCC(=O)Nc1c(F)cccc1F [CBK295150] | 88.2
57 | O=C(c1ccccn1)N(CCc1ccccc1)c1nc2ccccc2s1 [CBK295151] | 97.5
58 | CC(NCC(=O)N1c2ccccc2NC(=O)CC1C)c1ccc(-c2ccccc2)cc1 (centres unmarked) [CBK295155] | 84.2
59 | C=CCOc1ccc(CN(C)Cc2nc3cc(C(=O)O)ccc3c(=O)[nH]2)cc1 [CBK295156] | 101
60 | CC(NCc1nc(=O)c2sccc2[nH]1)c1ccc2c(c1)OCCO2 (centres unmarked) [CBK295157] | 88.4
61 | Cc1ccc(C(=O)NC(C)c2nc3ccccc3n2Cc2ccc(C(=O)O)o2)cc1 (centres unmarked) [CBK295159] | 107
62 | O=C(CSc1nnnn1CC1CCCO1)N1CC=C(c2ccccc2)CC1 (centres unmarked) [CBK295160] | 82
63 | CCN(CC)S(=O)(=O)c1ccc2c(c1)CCCN2C(=O)c1ccc(C#N)cc1 [CBK295161] | 85.9
64 | CC(=O)Nc1ccc(NS(=O)(=O)c2ccc(C)c(C(=O)O)c2)cc1 [CBK295162] | 85.9
65 | Cc1cc(C)cc(-c2nnc(SCCC(=O)NC(N)=O)o2)c1 [CBK295164] | 107
66 | CCOC(=O)C1CCN(Cn2nc(-c3cccs3)oc2=S)CC1 [CBK295165] | 85.9

Row | SMILES | viability at 28.5 h, 10 µM [%]
67 | CC(C)c1nn(CN(C)Cc2ccccc2)c(=S)[nH]1 [CBK295166] | 102
68 | O=C(NCc1cn2ccccc2n1)c1ccc(C2SCCS2)cc1 [CBK295167] | 83.5
69 | CCCn1c(SC(C)C(=O)Nc2ccc(S(=O)(=O)NC(C)C)cc2)n[nH]c1=O (centres unmarked) [CBK295169] | 87.9
70 | Cc1ccc(SCCC(=O)NC(CCC(=O)O)C(=O)O)cc1 (centres unmarked) [CBK295173] | 88
71 | Cc1ccc(SCCC(=O)NC(CC(=O)O)C(=O)O)cc1 (centres unmarked) [CBK295174] | 103
72 | O=C(Cc1csc(-c2ccc(F)cc2)n1)Nc1ccc(F)cc1 [CBK295177] | 82.3
73 | Cc1[nH]c(C(=O)NCCc2ccco2)c(C)c1C(=O)OC(C)C [CBK295180] | 84.1
74 | CN(C)c1cccc(C(=O)Nc2ccccc2N2CCOCC2)c1 [CBK295184] | 76.2
75 | CN(CC(=O)Nc1ccccc1N1CCCC1)Cc1cnn(Cc2ccccc2)c1 [CBK295187] | 105
76 | CN(CC(=O)Nc1ccc(N(C)C)cc1)Cc1ccc(F)cc1 [CBK295188] | 86.1
77 | Cn1c(SCc2cc(-c3ccc(Cl)cc3)no2)nnc1-c1ccco1 [CBK295193] | 81.9
78 | Cc1ccnc2nc(C(=O)Nc3ccc4c(c3)CCC4)nn12 [CBK295194] | 74.9
79 | NC(=O)COc1ccc(C2Nc3ccccc3C(=O)N2C2CC2)cc1 (centres unmarked) [CBK295198] | 98.2
80 | Cn1nc(-c2ccc(Cl)cc2)cc1NC(=O)Cn1nnc(-c2ccc(F)cc2)n1 [CBK295203] | 82.7
81 | Cc1ccc(C)c(-n2nnnc2SC(C)C(=O)N2CCCC2)c1 (centres unmarked) [CBK295204] | 79.9
82 | C=CCn1c(-c2sc(NC(=O)c3ccc(C)c(C)c3)nc2C)n[nH]c1=S [CBK295294] | 88.7
83 | O=C(O)c1cccc(NS(=O)(=O)c2ccc(S(=O)(=O)N3CCCCC3)cc2)c1 [CBK295295] | 101
84 | O=C(O)c1cc(Cl)c(OCc2cc(-c3ccccc3)no2)c(Cl)c1 [CBK295297] | 86.7
85 | C=CCn1c(Cc2csc(NC(=O)c3ccc(C(C)=O)s3)n2)n[nH]c1=S [CBK295299] | 77
86 | CCOc1ccc(-c2nc(CC(=O)O)cs2)cc1 [CBK295300] | 87.7
